Source: patent US5212165A, “Method for rehabilitating the vasorelaxant action of the coronary arteries impaired through atherosclerosis or hypercholesterolemia employing an ACE inhibitor” (E. R. Squibb & Sons, Inc., priority 1989, dated 1993)

What was measured:
isolated rat hearts = conditions: van Gilst et al; cited from earlier work
[1] = system: voltage-dependent calcium channels (iliac rings); assay: Relaxation responses to nifedipine of CaCl2-contracted iliac rings from cynomolgus monkeys; design: species or system cynomolgus (Macaca fascicularis) monkeys; conditions: cholesterol-fed monkeys, with captopril
Text: (§1) Twenty-four male cynomolgus (Macaca fascicularis) monkeys were divided into four groups of six animals each. During the course of the study, one of the control monkeys was sacrificed due to ill health unrelated to the study. Each group was fed a different diet for six months. The control group ate a normal diet of monkey biscuit. The cholesterol group ate a specially formulated monkey diet containing cholesterol. The cholesterol +low captopril group ate the cholesterol diet supplemented with captopril (50 mg/kg divided into two daily doses). The cholesterol+high captopril group ate the cholesterol diet and a higher total dose of captopril (100 mg/kg divided into two daily doses).
(§2) The monkeys were sedated with an intramuscular injection of ketamine (10 mg/kg), then anesthetized with pentobarbital (25 mg/kg). The iliac arteries were carefully dissected, cleaned of surrounding connective tissue, and refrigerated overnight for use the following day.
(§3) On the day of the experiment, three iliac rings (3 mm wide) from each animal were cut and mounted for isometric force recording. Each ring was attached to a micrometer for the control of muscle length and to a Grass FT.03 force transducer and Grass 7D recorder. The rings were placed in warm (37° C.), oxygenated, physiological salt solution (PSS) of the following composition (in mM): 140.0 NaCl, 4.7 KCl, 1.2 MgSO4, 1.6 CaCl2, 1.2 NaH2 PO4, 5.6 D-glucose, 2.0 2-(N-morpholino)propanesulfonic acid (MOPS, pH 7.4 at 37° C.), and 0.02 Na2 -ethylenediaminetetraacetic acid (EDTA). The rings were stretched to a preload of 5 g during a 2 hour equilibration period, then stimulated with 1 μM phenylephrine to test for viability and relaxed with 100 nM acetylcholine to test for endothelial function. Stock solutions of phenylphrine, acetylcholine, propranolol, and sodium nitroprusside were prepared daily in water; nifedipine stock solutions were prepared daily in ethanol.
(§4) The voltage-dependent calcium channels were studied in one ring from each monkey. The protocol consisted of depleting the cells of calcium by exposing the rings to a Ca-free, EGTA (ethylene glycol-bis(β-aminoethyl ether)N,N,N',N'-tetraacetic acid) PSS (omission of CaCl2 and addition of 0.1 mM EGTA) for 30 minutes. The EGTA was subsequently removed from the tissues with three washes of Ca-free PSS (simple omission of CaCl2). Following that, the rings were bathed in Ca-free, K^+ PSS (omission of CaCl2 and isoosmotic substitution of KCl for NaCl such that the KCl concentration was 110 mM) for 30 minutes. A CaCl2 concentration-response curve was obtained by replacing the bath solution with K^+ PSS containing incremental increases in CaCl2 concentration (0.1, 0.3, 0.5, 1.0, 1.25, 1.6, and 2.5 mM). The maximal contractions, in response to 2.5 mM CaCl2, were then relaxed incrementally with nifedipine. Another iliac ring (fade control) from each monkey was subjected to the same protocol with the exception that the strips were allowed to remain contracted and the nifedipine concentration-response curve was not obtained. Some fade of the CaCl2 -induced force was observed over the time period required for the nifedipine concentration-response curve. This fade was accounted for by decreasing the amount of relaxation observed upon addition of nifedipine by the amount of fade observed in the time control from the same monkey.
Data are presented as mean±SEM. The IC50 and EC50 values were estimated by linearly interpolating from the concentration-response curves. […]

[2] = system: K^+ depolarized arteries (iliac rings); assay: Contractile responses to CaCl2 in K^+ depolarized iliac rings from cynomolgus monkeys; design: species or system cynomolgus (Macaca fascicularis) monkeys
Text: as §1, §2, §3, §4
Data are presented as mean±SEM. The IC50 and EC50 values were estimated by linearly interpolating from the concentration-response curves. The EC50 values for each ring were used to determine the means for each treatment group.
Concentration-response curves to CaCl2 in K^+ depolarized rings were obtained following depletion of tissue calcium by repeated washing in Ca-free PSS first with, then without, EGTA. There were no differences in the responses to CaCl2 among any of the treatment groups (Table 1).

## C[C@H](CS)C(=O)N1CCC[C@H]1C(=O)O [captopril, 1-[(2S)-3-mercapto-2-methylpropionyl]-L-proline]
Isolated rat hearts
  coronary vasodilatory mechanism: potentiates the effect of locally increased BK
[1]
  effect on in vitro response of iliac arteries to nifedipine: neither cholesterol nor captopril affected
[2]; Cholesterol + High Captopril (100 mg/kg daily, six months), Mean ± SEM
  Max Force (CaCl2): 16.8 ± 1.1 g
[2]; Cholesterol + Low Captopril (50 mg/kg daily, six months), Mean ± SEM
  Max Force (CaCl2): 16.5 ± 1.8 g
[2]; Macaca fascicularis, Cholesterol + High Captopril (100 mg/kg daily, six months), Mean ± SEM
  EC50 at 100 mg/kg: 150 ± 30 µM
[2]; Macaca fascicularis, Cholesterol + Low Captopril (50 mg/kg daily, six months), Mean ± SEM
  EC50 at 50 mg/kg: 140 ± 40 µM
[2]; cholesterol-fed monkeys, with captopril
  effect on in vitro response of iliac arteries to CaCl2: neither cholesterol nor captopril affected
